The numbers were not newly measured in patent publication US11136326B2, “Pyrrolopyrimidine derivatives as TAM inhibitors” (Incyte Corporation, priority 2015, dated 2021), which cites them from elsewhere.

This series has as its system NK cells.

As to `CCOc1cn(-c2ccc(F)cc2C)nc1C(=O)Nc1ccc(Oc2ccnc3cc(OC)c(OC)cc23)c(F)c1` [LDC1267], the NK cell activation result is recorded as “activates NK cells”.
